Literature values as cited in patent publication US8609138B2, “ω3 fatty acid compound preparation” (Mochida Pharmaceutical Co., Ltd., priority 2010, dated 2013).

Assays:
[1] = pH 7.4; Non-Patent Literature 1
[2] = pharmaceutical products; Non-Patent Literatures 2-4

| Compound | log P7.4; water-octanol partition coefficient at a pH of 7.4 [1] | partition coefficient (octanol-water partition coefficient) [2] |
| --- | --- | --- |
| CC(C)c1nc(N(C)S(C)(=O)=O)nc(-c2ccc(F)cc2)c1/C=C/[C@@H](O)C[C@@H](O)CC(=O)O [rosuvastatin] | ~-0.33 |  |
| CCC(C)(C)C(=O)O[C@H]1C[C@@H](C)C=C2C=C[C@H](C)[C@H](CC[C@@H]3C[C@@H](O)CC(=O)O3)[C@H]21 [simvastatin] | 1.60 |  |
| CC[C@H](C)C(=O)O[C@H]1C[C@H](O)C=C2C=C[C@H](C)[C@H](CC[C@@H](O)C[C@@H](O)CC(=O)O)[C@H]21 [pravastatin] | −0.84 |  |
| CC(C)c1nc(N(C)S(C)(=O)=O)nc(-c2ccc(F)cc2)c1/C=C/[C@@H](O)C[C@@H](O)CC(=O)[O-].CC(C)c1nc(N(C)S(C)(=O)=O)nc(-c2ccc(F)cc2)c1/C=C/[C@@H](O)C[C@@H](O)CC(=O)[O-].[Ca+2] [rosuvastatin calcium] |  | −0.3±0.1 |
| CC[C@H](C)C(=O)O[C@H]1C[C@H](O)C=C2C=C[C@H](C)[C@H](CC[C@@H](O)C[C@@H](O)CC(=O)O)[C@H]21 [Pravastatin sodium] |  | −0.33 |
